These results are taken from patent US12077503B2, “Substituted cyclic amides and their use as herbicides” (FMC CORPORATION, priority 2015, dated 2024).

SMILES strings stand for the structures. Where two headings read alike, the source gives them in different places.

In series [1] the test system is ragweed (common ragweed, Ambrosia elatior). As to the kind of experiment: Test A preemergence. In kind it is in vivo. The following applies: Ambrosia artemisiifolia, pre-emergence, 240 h; for pest or weed control at 125 g/ha: 125 g ai/ha; for pest or weed control at 500 g/ha: 500 g ai/ha. The method in brief: (§1)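 Greenhouse, ~10 d after spray; visual injury vs untreated controls, 0 = no effect, 100 = complete control. Preemergence: directed soil spray over planted seeds. Postemergence: plants 2–10 cm, 1–2 leaf stage. Loam/sand blend. Compound in non-phytotoxic solvent with surfactant.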

Series [2] concerns giant foxtail (Setaria faberii). As to the kind of experiment: Test A preemergence. It is filed as in vivo. The following applies: Setaria faberi, pre-emergence, 240 h; for pest or weed control at 125 g/ha: 125 g ai/ha; for pest or weed control at 500 g/ha: 500 g ai/ha. The gist of the method:
as §1

The test system of series [3] is pigweed (Amaranthus retroflexus). As to the kind of experiment: Test A preemergence. In kind it is in vivo. The note with it: Amaranthus retroflexus, pre-emergence, 240 h; for pest or weed control at 125 g/ha: 125 g ai/ha; for pest or weed control at 500 g/ha: 500 g ai/ha.
The subject of series [4] is Kochia (Kochia scoparia). As to the kind of experiment: Test A preemergence. In kind it is in vivo. The following applies: Bassia scoparia, pre-emergence, 240 h; for pest or weed control at 125 g/ha: 125 g ai/ha; for pest or weed control at 500 g/ha: 500 g ai/ha. The method in brief:
as §1

Series [5] deals with barnyardgrass (Echinochloa crus-galli). As to the kind of experiment: Test A preemergence. It is filed as in vivo. The following applies: Echinochloa crus-galli, pre-emergence, 240 h; for pest or weed control at 125 g/ha: 125 g ai/ha; for pest or weed control at 500 g/ha: 500 g ai/ha. The gist of the method: as §1

In general, melting point refers to the temperature, or range, at which the solid turns liquid. `O=C1NC[C@H](c2nccc(C(F)(F)F)n2)[C@H]1C(=O)Nc1ccccc1F` [Compound 1304]: the melting point is 166 to 170 °C. Besides, in series [1] (preemergence, visual injury rating, 0 to 100 scale where 0 is no effect and 100 is complete control, approximately 10 d, read-out: Ragweed plant response rating), the pest or weed control at 125 g/ha turned out to be 0%. Further, the pest or weed control at 500 g/ha in series [1] (preemergence, 0 to 100 scale where 0 is no effect and 100 is complete control, read-out: Ragweed plant response rating) was 0%. The pest or weed control at 125 g/ha in series [2] (preemergence, visual injury rating, 0 to 100 scale where 0 is no effect and 100 is complete control, approximately 10 d, read-out: Foxtail, Giant plant response rating) is 0%. The pest or weed control at 500 g/ha in series [2] (preemergence, 0 to 100 scale where 0 is no effect and 100 is complete control, read-out: Foxtail, Giant plant response rating) is 0%. The pest or weed control at 125 g/ha in series [3] (preemergence, visual injury rating, 0 to 100 scale where 0 is no effect and 100 is complete control, approximately 10 d, read-out: Pigweed plant response rating) was determined as 0%. Moreover, the pest or weed control at 500 g/ha in series [3] (preemergence, 0 to 100 scale where 0 is no effect and 100 is complete control, read-out: Pigweed plant response rating) was found to be 0%. The pest or weed control at 125 g/ha in series [4] (preemergence, visual injury rating, 0 to 100 scale where 0 is no effect and 100 is complete control, approximately 10 d, read-out: Kochia plant response rating) amounted to 0%. Moreover, in series [4] (preemergence, 0 to 100 scale where 0 is no effect and 100 is complete control, read-out: Kochia plant response rating), the pest or weed control at 500 g/ha worked out at 0%. Moreover, in series [5] (preemergence, visual injury rating, 0 to 100 scale where 0 is no effect and 100 is complete control, approximately 10 d, read-out: Barnyardgrass plant response rating), the pest or weed control at 125 g/ha turned out to be 0%. In series [5] (preemergence, 0 to 100 scale where 0 is no effect and 100 is complete control, read-out: Barnyardgrass plant response rating), the pest or weed control at 500 g/ha is 0%.
As for `O=C1NC[C@H](c2cncs2)[C@H]1C(=O)Nc1cccc(F)c1F` [Compound 1336], the melting point was in the range of 111 to 142 °C. Further, the pest or weed control at 500 g/ha in series [1] (preemergence, 0 to 100 scale (0 no effect, 100 complete control), read-out: Plant response rating, Ragweed) came to 0%. Besides, the pest or weed control at 125 g/ha in series [1] (Preemergence, 0 to 100 scale (0 no effect, 100 complete control), read-out: Plant response rating, Ragweed) is 0%. Besides, the pest or weed control at 500 g/ha in series [2] (preemergence, 0 to 100 scale (0 no effect, 100 complete control), read-out: Plant response rating, Foxtail, Giant) is 0%. Also, in series [2] (Preemergence, 0 to 100 scale (0 no effect, 100 complete control), read-out: Plant response rating, Foxtail, Giant), the pest or weed control at 125 g/ha stood at 0%. Further, in series [3] (preemergence, 0 to 100 scale (0 no effect, 100 complete control), read-out: Plant response rating, Pigweed), the pest or weed control at 500 g/ha was 0%. Further, the pest or weed control at 125 g/ha in series [3] (Preemergence, 0 to 100 scale (0 no effect, 100 complete control), read-out: Plant response rating, Pigweed) worked out at 0%. For the same compound, the pest or weed control at 500 g/ha in series [4] (preemergence, 0 to 100 scale (0 no effect, 100 complete control), read-out: Plant response rating, Kochia) came out at 0%. Moreover, in series [4] (Preemergence, 0 to 100 scale (0 no effect, 100 complete control), read-out: Plant response rating, Kochia), the pest or weed control at 125 g/ha came to 0%. In addition, the pest or weed control at 500 g/ha in series [5] (preemergence, 0 to 100 scale (0 no effect, 100 complete control), read-out: Plant response rating, Barnyardgrass) turned out to be 0%. The pest or weed control at 125 g/ha in series [5] (Preemergence, 0 to 100 scale (0 no effect, 100 complete control), read-out: Plant response rating, Barnyardgrass) came out at 0%.
